Structures can show the parent of a compound that is named as a salt.

Drawing on US5453524A, “Phosphorus-containing isoprenoid derivatives” (Eisai Co., Ltd., priority 1991, dated 1995), this text covers IC50 for 26 compounds.

The assay concerns the target T1, squalene synthetase (Rattus norvegicus, UniProt Q02769).
T1 construct: from tissue; host or cells: liver microsomes of cholestyramine-fed Sprague-Dawley rat
T1 sequence (Q02769 1-416): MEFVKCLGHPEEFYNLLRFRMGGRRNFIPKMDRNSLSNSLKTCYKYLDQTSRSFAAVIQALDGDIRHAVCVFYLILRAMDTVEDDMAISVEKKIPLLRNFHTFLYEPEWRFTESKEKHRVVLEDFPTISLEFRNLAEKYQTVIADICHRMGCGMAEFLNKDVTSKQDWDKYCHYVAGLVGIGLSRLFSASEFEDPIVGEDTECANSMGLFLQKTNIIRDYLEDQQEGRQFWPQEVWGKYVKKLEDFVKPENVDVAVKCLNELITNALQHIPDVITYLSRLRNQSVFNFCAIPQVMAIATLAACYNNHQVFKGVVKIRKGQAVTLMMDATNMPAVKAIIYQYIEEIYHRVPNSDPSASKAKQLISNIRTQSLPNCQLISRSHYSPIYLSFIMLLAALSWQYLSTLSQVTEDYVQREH
Put plainly: inhibitory activity against squalene synthetase with liver microsome of cholestyramine-treated rat. As to conditions: liver microsome of cholestyramine-treated Sprague-Dawley rat; 10 μM 3H-FPP, pH 7.4, 37° C., 10 min. Format: biochemical. The procedure:
Determination of inhibitory activity against squalene synthetase with liver microsome of cholestyramine-treated rat
1 mM NADPH (nicotinamide adenine dinucleotide phosphate)
10 μM ^3 H-FPP (farnesylpyrophosphoric acid) (10 mCi/mmol, a product of New England Nuclea Co.)
0.1 mg/ml liver microsome of rat 37° C., 10 min.
These components were put in a spit tube as follows: […]
______________________________________
sample solution of 5-fold concentration
1 mg/ml liver microsome of rat
The obtained mixture was preincubated at 37° C. for 5 minutes. 50 μl of 100 μM ^3 H-FPP (10 mCi/mmol; NEN) was added to the resulting mixture to initiate a reaction. After 10 minutes, 1 ml of 4N NaOH was added to the mixture to stop the reaction, followed by the addition thereto of 1 ml of ethanol. The obtained mixture was incubated at 80° C. for 12 hours, cooled with ice and extracted with petroleum ether twice. The petroleum ether layers were separated from the aqueous layer and evaporated to dryness with nitrogen gas. The residue was dissolved in 25 μl of chloroform containing squalene, famesol and cholesterol as markers. The obtained solution was applied to TLC (Empore; 412001-1) and developed under the following conditions:
benzene/isopropyl ether (1: 1), 6 min.
The band of squalene was cut from the plate and examined for radioactivity with a liquid scintillation counter to determine the inhibitory ratio.
(2) Preparation of Liver Microsome of Rat
A Sprague-Dawley rat was fed with food containing 2% of cholestyramine (Dowex 1-X2) for at least 5 days to enhance the cholesterol-biosynthesizing activity of the rat. At midnight (0:00), the liver was extirpated from the rat and washed with a 1.154 (w/v) ice-cooled KCl solution to remove the blood from the liver. The resulting liver was cut into small pieces with scissors, homogenized with a Teflon homogenizer of the loose fitting type and subjected to centrifugation (700 g, 10 min). The obtained supernatant was further subjected to centrifugation (15,000 g, 20 min) and the obtained supernatant was furthermore subjected to centrifugation (105,000 g 60 min) to be separated into a microsome fraction and a supernatant. This microsome fraction was washed with a 0.1M potassium phosphate buffer (pH: 7.4) once and suspended in a 0.1M potassium phosphate buffer in the liver concentration of 3 g/ml. The obtained suspension was examined for protein concentration by the Lowry method and the protein concentration was adjusted to 20 mg/ml.
IC50 values of the squalene synthetase inhibiting activity are given in Tables 1 to 5, wherein Me represents a methyl group and Et an ethyl group.
Background: Liver microsomes are a subcellular fraction often used to study metabolism.

As to `CC(C)=CCC/C(C)=C/CC/C(C)=C/CC(P(=O)(O)O)P(=O)(O)O` [Example 13, (E,E)-4,8,12-Trimethyl-37,11-tridecatrienyl-1,1-bis(phosphonic acid disodium salt)], the midpoint of inhibition, the IC50, lay at 3 nM.

Compound `CC(C)=CCC/C(C)=C/CC/C(C)=C/CCC(P(=O)(O)O)P(=O)(O)O` [Example 14, (E,E)-5,9,13-Trimethyl-4,8,12-tetradecatrienyl-1,1-bis(phosphonic acid disodium salt)] came in with an IC50 of 5 nM.

`CC(C)=CCC/C(C)=C/CC(P(=O)(O)O)P(=O)(O)O` [Example 15, (E)-4,8-Dimethyl3,7-nonadienyl-1,1-bis(phosphonic acid disodium salt)]: half-maximal inhibition (IC50) required 300 nM.

The compound `CC(C)=CCC/C(C)=C/CC/C(C)=C/CC/C(C)=C/CC(P(=O)(O)O)P(=O)(O)O` [Example 16, (E,E,E)-4,8,12,16-Tetramethyl-3,7,11,15-heptadecatetraenyl-1,1-bis(phosphonic acid disodium salt)] showed an IC50 of 8 nM.

For `CC(C)=CCC/C(C)=C/CC/C(C)=C/CN(C)CCCC(P(=O)(O)O)P(=O)(O)O` [Example 17, 4-{(E,E)-N-Methyl-3,7,11-trimethyl-2,6,10-dodecatrienylamino}butyl-1,1-bis(phosphonic acid disodium salt)], half-maximal inhibition (IC50) was put at 2 nM.

`CC(C)=CCC/C(C)=C/CCC(C)N(C)CCCC(P(=O)(O)O)P(=O)(O)O` (centres unmarked) [Example 18, 4-{(E)-N-Methyl-1,5,9-trimethyl-4,8-decadienylamino}-butyl-1,1-bis(phosphonic acid disodium salt)]: the IC50 is 3 nM.

As to `CC(C)=CCC/C(C)=C/CCN(C)CCCC(P(=O)(O)O)P(=O)(O)O` [Example 19, 4-{(E)-N-Methyl-4,8-dimethyl-3,7-nonadienylamino}-butyl-1,1-bis(phosphonic acid disodium salt)], inhibition was half-maximal at 1 nM (IC50).

Take `C/C(=C\CC/C(C)=C/CC(P(=O)(O)O)P(=O)(O)O)CC/C=C/c1ccccc1` [Example 20, (E,E,E)-4,8-Dimethyl-12-phenyl-3,7,11-dodecatrienyl-1,1-bis(phosphonic acid disodium salt)]: half-maximal inhibition (IC50) was put at 2 nM.

In the case of `C/C(=C\CC(P(=O)(O)O)P(=O)(O)O)CC/C=C(\C)c1ccccc1` [Example 21, (E,E)-4-Methyl-8-phenyl-3,7-nonadienyl-1,1-bis(phosphonic acid disodium salt)], it took 1 nM to reach half-maximal inhibition (IC50).

On to `C/C(=C\CC(P(=O)(O)O)P(=O)(O)O)CC/C=C/c1ccccc1` [Example 22, (E,E)-4-Methyl-8-phenyl-3,7-octadienyl-1,1-bis(phosphonic acid disodium salt)], for which the IC50 came out at 1 nM.

`C/C(=C\CN(C)CCCC(P(=O)(O)O)P(=O)(O)O)CC/C=C(\C)c1ccccc1` [Example 23, 4-{(E,E)-N-Methyl-3-methyl-7-phenyl-2,6-octadienylamino}-butyl-1,1-bis(phosphonic acid disodium salt)]: half-maximal inhibition (IC50) was put at 0.5 nM.

Take `CCOP(=O)(O)C(CC/C=C(\C)CC/C=C(\C)CCC=C(C)C)C(=O)O` (centres unmarked) [Example 29, Disodium salt of ethyl(E,E)-1-carboxy-5,9,13-trimethyl-4,8,12-tetradecatrienylphosphonate]: 7300 nM corresponded to half-maximal inhibition (IC50).

`CCOP(=O)(O)C(C/C=C/C=C(\C)CC/C=C(\C)CCC=C(C)C)C(=O)O` (centres unmarked) [Example 30, Disodium salt of ethyl (E,E,E)-1-carboxy-6,10,14-trimethyl-3,5,9,13-pentadecatetraenylphosphonate]: it took 7100 nM to reach half-maximal inhibition (IC50).

For `CCOC(=O)C(C/C=C(\C)CC/C=C(\C)CCC=C(C)C)P(=O)(O)O` (centres unmarked) [Example 31, Disodium (E,E)-1-carboethoxy4,8,12-trimethyl-3,7,11-tridecatrienylphosphonate], 9400 nM corresponded to half-maximal inhibition (IC50).

In turn, `CC(C)=CCC/C(C)=C/CC/C(C)=C/CC(C(=O)O)P(=O)(O)O` (centres unmarked) [Example 32, Trisodium salt of (E,E)-carboxy-4,8,12-trimethyl-3,7,11-tridecatrienylphosphonic acid] had an IC50 of 1600 nM.

Consider `CC(C)=CCC/C(C)=C/CC/C(C)=C/CCC(C(=O)O)P(=O)(O)O` (centres unmarked) [Example 33, Trisodium salt of-(E,E)-1-carboxy-5,9,13-trimethyl-4,8,12-tetradecatrienylphosphonic acid], for which the midpoint of inhibition, the IC50, lay at 180 nM.

Take `CC(C)=CCC/C(C)=C/CC/C(C)=C/C=C/CC(C(=O)O)P(=O)(O)O` (centres unmarked) [Example 34, Trisodium salt of (E,E,E)-1-carboxy-6,10,14-trimethyl-3,5,9,13-pentadecatetraenylphosphonic acid]: the IC50 was 600 nM.

For `CC(C)=CCC/C(C)=C/CC/C(C)=C/CN(C)CCCC(C(=O)O)P(=O)(O)O` (centres unmarked) [Example 35, Trisodium salt of 1-carboxy,4-{(E,E)-N-methyl-3,7,11-trimethyl-2,6,10-dodecatrienylamino}burylphosphonic acid], 20 nM corresponded to half-maximal inhibition (IC50).

Compound `CC(C)=CCC/C(C)=C/CN(C)CCCC(P(=O)(O)O)P(=O)(O)O` [Example 43, 4-{(E)-N-Methyl-3,7-dimethyl-2,6-octadienylamino}butyl 1,1-bis(phosphonic acid disodium salt)] returned an IC50 of 3 nM.

Regarding `CCN(C/C=C(\C)CCC=C(C)C)CCCC(P(=O)(O)O)P(=O)(O)O` [Example 44, 4-{(E)-N-Ethyl-3,7-dimethyl-2,6-octadienylamino}butyl-1,1-bis(phosphoric acid disodium salt)], 3 nM corresponded to half-maximal inhibition (IC50).

As to `CC(C)=CCC/C(C)=C/CNCCCC(P(=O)(O)O)P(=O)(O)O` [Example 45, 4-{(E)-3,7-Dimethyl-2,6-octadienylamino}butyl-1,1-bis(phosphonic acid disodium salt)], the IC50 came to 3 nM.

As to `CC(C)=CCC/C(C)=C/CCC(C)N(C)CCCCC(P(=O)(O)O)P(=O)(O)O` (centres unmarked) [Example 46, 5-{(E}-N-Methyl-1,5,9-trimethyl-4,8-decadienylamino}-pentyl-1,1-bis(phosphonic acid disodium salt)], half-maximal inhibition (IC50) was put at 2 nM.

In the case of `CC(C)=CCC/C(C)=C/CC/C(C)=C/CNC(P(=O)(O)O)P(=O)(O)O` [Example 47, {(E,E)-3,7,11-Trimethyl-2,6,10-dodecatrienylamino}-methylbis(phosphonic acid sodium salt)], the IC50 was 2 nM.

For `CC(C)=CCC/C(C)=C/CC/C(C)=C/CN(C)C(P(=O)(O)O)P(=O)(O)O` [Example 48, {(E,E)-N-Methyl-3,7,11-trimethyl-2,6,10-dodecatrienylamino}methylbis(phosphonic acid disodium salt)], the midpoint of inhibition, the IC50, lay at 1 nM.

As to `CC(C)=CCC/C(C)=C/CC/C(C)=C/CN(C)CCCCC(P(=O)(O)O)P(=O)(O)O` [Example 49, 5-{(E,E)-N-Methyl-3,7,11-trimethyl-2,6,10-dodecatrienylamino}pentyl-1,1-bis(phosphonic acid disodium salt)], the IC50 is 2 nM.

`CC(C)=CCC/C(C)=C/CCC(C)N(C)CCCC(C(=O)O)P(=O)(O)O` (centres unmarked) [Example 51, Trisodium salt of 1-carboxy-4,{(E)-N-methyl-1,5,9-trimethyl-4,8-decadienylamino}butylphosphonic acid] gave a concentration for half-maximal inhibition (IC50) of 14 nM.

One may read the IC50 as the point on the concentration scale where inhibition reaches its midpoint. A higher IC50 goes with a need for much substance.
